pEC50: −log10 of the molar value. Counter-ions that a name gives are not always drawn. Like-named read-outs stand apart in the source and are kept apart here.
Tested on: NQO1 specific enzyme activity in BEAS-2B cells
Assay: BEAS-2B NQO1 MTT assay
Type: cell-based
Settings: BEAS-2B cells, 48 hours with compound, MTT readout, read-out: EC50 of NQO1 specific activity induction
Outline: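 NQO1 specific activity, an NRF2 activation marker, read kinetically as absorbance change at 570 nm for 30 min after MTT cocktail addition to crude lysates of BEAS-2B cells exposed 48 h to compound. Three-parameter fit of Delta OD/min against log concentration gives EC50; lysate portion used for Cell Titer Glo.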

| Molecule | pEC50 (Homo sapiens, BEAS-2B, 48 h) | pEC50 |
| --- | --- | --- |
| CC[C@@H]1CN(Cc2cc([C@@H](c3ccc4c(nnn4CC)c3C)C(C)(C)C(=O)O)ccc2C)Cc2cnccc2O1 [Example 188, (S)-3-(3-(((R)-2-Ethyl-2,3-dihydropyrido[3,4-f][1,4]oxazepin-4(5H)-yl)methyl)-4-methylphenyl)-3-(1-ethyl-4-methyl-1H-benzo[d][1,2,3]triazol-5-yl)-2,2-dimethylpropanoic Acid] | > 9.00 | – |
| CC[C@@H]1CN(Cc2cc([C@H](CC(=O)O)c3ccc4c(nnn4CC)c3Cl)ccc2C)Cc2ccccc2O1 [Example 56, (S)-3-(4-Chloro-1-ethyl-1H-benzo[d][1,2,3]triazol-5-yl)-3-(3-(((R)-2-ethyl-2,3-dihydrobenzo[f][1,4]oxazepin-4(5H)-yl)methyl)-4-methylphenyl)propanoic acid] | 7.00 to 8.00 | – |
| Cc1ccc(C(c2ccc3c(nnn3C)c2C)C(C)(C)C(=O)O)cc1CN1CCCC(n2cccn2)C1 (stereo not shown) [Example 162, 3-(3-((3-(1H-Pyrazol-1-yl)piperidin-1-yl)methyl)-4-methylphenyl)-3-(1,4-dimethyl-1H-benzo[d][1,2,3]triazol-5-yl)-2,2-dimethylpropanoic Acid] | 6.00 to 7.00 | – |
| CC[C@@H]1CN(Cc2cc([C@H](c3ccc4c(nnn4C)c3C)[C@@H](C)C(=O)O)ccc2C)Cc2ccccc2O1 [Example 40, (2R,3R)-3-(1,4-Dimethyl-1H-benzo[d][1,2,3]triazol-5-yl)-3-(3-(((R)-2-ethyl-2,3-dihydrobenzo[f][1,4]oxazepin-4(5H)-yl)methyl)-4-methylphenyl)-2-methylpropanoic Acid] | 7.00 to 8.00 | – |
| CCC1CCN(Cc2nccn2Cc2cc(C(CCc3cn(CC)nn3)C(C)C(=O)O)ccc2C)CC1 (single isomer, unassigned) [Example 226, 5-(1-Ethyl-1H-1,2,3-triazol-4-yl)-3-(3-((2-((4-ethylpiperidin-1-yl)methyl)-1H-imidazol-1-yl)methyl)-4-methylphenyl)-2-methylpentanoic acid, Trifluoroacetic Acid Salt] | – | 7.00 to 8.00 |
| CCC1CCN(Cc2nccn2Cc2cc([C@@H](c3ccc4c(nnn4C)c3C)C(C)(C)C(=O)O)ccc2C)CC1 [Example 122, (S)-3-(1,4-Dimethyl-1H-benzo[d][1,2,3]triazol-5-yl)-3-(3-((2-((4-ethylpiperidin-1-yl)methyl)-1H-imidazol-1-yl)methyl)-4-methylphenyl)-2,2-dimethylpropanoate, Sodium salt] | 7.00 to 8.00 | – |
| (S)-3-(1,4-Dimethyl-1H- benzo[d][1,2,3]triazol-5- yl)-3-(3-(((R)-2-ethyl-9- fluoro-2,3- dihydrobenzo[f][1,4]oxa- zepin-4(5H)-yl)methyl)-4- methylphenyl)-2,2- dimethylpropanoic acid, trifluoroacetic acid salt [Example 25] | – | > 9.00 |
| Cc1ccc(C(CC(=O)O)c2ccc3c(nnn3C)c2C)cc1CN1Cc2ccccc2O[C@@H](C)C1 (stereo partly drawn) [Example 98, 3-(1,4-Dimethyl-1H-benzo[d][1,2,3]triazol-5-yl)-3-(4-methyl-3-(((S)-2-methyl-2,3-dihydrobenzo[f][1,4]oxazepin-4(5H)-yl)methyl)phenyl)propanoic Acid, Formic Acid Salt] | 6.00 to 7.00 | – |
| Cc1ccc([C@@H](CC(=O)O)c2ccc3c(nnn3C)c2C)cc1CN1Cc2ccc(F)cc2OC(C)(C)C1 [Example 59, (R)-3-(1,4-Dimethyl-1H-benzo[d][1,2,3]triazol-5-yl)-3-(3-((8-fluoro-2,2-dimethyl-2,3-dihydrobenzo[f][1,4]oxazepin-4(5H)-yl)methyl)-4-methylphenyl)propanoic acid] | 7.00 to 8.00 | – |
| CCC1CN(Cc2cc(C(c3ccc4c(nnn4C)c3C)C(C)(C)C(=O)O)ccc2C)CCC(C2CC2)O1 (stereo not shown) [Example 246, 3-(3-((7-Cyclopropyl-2-ethyl-1,4-oxazepan-4-yl)methyl)-4-methylphenyl)-3-(1,4-dimethyl-1H-benzo[d][1,2,3]triazol-5-yl)-2,2-dimethylpropanoic Acid] | 6.00 to 7.00 | – |
| CC[C@@H]1CN(Cc2cc([C@@H](c3ccc4c(nnn4C)c3C)C(C)(C)C(=O)O)ccc2C)Cc2c(ccnc2F)O1 [Example 222, (S)-3-(1,4-Dimethyl-1H-benzo[d][1,2,3]triazol-5-yl)-3-(3-(((R)-2-ethyl-6-fluoro-2,3-dihydropyrido[3,4-f][1,4]oxazepin-4(5H)-yl)methyl)-4-methylphenyl)-2,2-dimethylpropanoic Acid] | > 9.00 | – |
| Cc1ccc(C(CC(=O)O)c2ccc3c(nnn3C)c2C)cc1Cn1ccnc1CC1CCCC1 (stereo not shown) [Example 148, 3-(3-((2-(Cyclopentylmethyl)-1H-imidazol-1-yl)methyl)-4-methylphenyl)-3-(1,4-dimethyl-1H-benzo[d][1,2,3]triazol-5-yl)propanoic acid] | 6.00 to 7.00 | – |
| CCC1CCN(Cc2nccn2Cc2cc(C(c3ccc4c(nnn4C)c3C)C(C)(C)C(=O)O)ccc2Cl)CC1 (stereo not shown) [Example 236, 3-(4-Chloro-3-((2-((4-ethylpiperidin-1-yl)methyl)-1H-imidazol-1-yl)methyl)phenyl)-3-(1,4-dimethyl-1H-benzo[d][1,2,3]triazol-5-yl)-2,2-dimethylpropanoic Acid] | > 9.00 | – |
| CC[C@@H]1CN(Cc2cc(C(CCc3cn(CC)nn3)C(C)C(=O)O)ccc2C)Cc2ncccc2O1 (stereo partly drawn) [Example 224, 5-(1-Ethyl-1H-1,2,3-triazol-4-yl)-3-(3-(((R)-2-ethyl-2,3-dihydropyrido[2,3-f][1,4]oxazepin-4(5H)-yl)methyl)-4-methylphenyl)-2-methylpentanoic Acid, 0.20 Formic Acid Salt] | 6.00 to 7.00 | – |
| Cc1ccc(C(CC(=O)O)c2ccc3c(nnn3C)c2C)cc1CN1Cc2ccccc2CC(C)(C)C1 (stereo not shown) [Example 105, Ammonium 3-(1,4-dimethyl-1H-benzo[d][1,2,3]triazol-5-yl)-3-(3-((4,4-dimethyl-4,5-dihydro-1H-benzo[c]azepin-2(3H)-yl)methyl)-4-methylphenyl)propanoate] | 7.00 to 8.00 | – |
| CC[C@@H]1CN(Cc2cc([C@H](CC(=O)O)c3ccc4c(nnn4C)c3C)ccc2F)Cc2ccncc2O1 [Example 260, (S)-3-(1,4-dimethyl-1H-benzo[d][1,2,3]triazol-5-yl)-3-(3-(((R)-2-ethyl-2,3-dihydropyrido[4,3-f][1,4]oxazepin-4(5H)-yl)methyl)-4-fluorophenyl)propanoic acid] | 6.00 to 7.00 | – |
| CCC1CN(Cc2cc(C(CC(=O)O)c3cc(OC)c4c(nnn4C)c3C)ccc2C)Cc2ccccc2O1 (stereo not shown) [Example 70, 3-(3-((2-Ethyl-2,3-dihydrobenzo[f][1,4]oxazepin-4(5H)-yl)methyl)-4-methylphenyl)-3-(7-methoxy-1,4-dimethyl-1H-benzo[d][1,2,3]triazol-5-yl)propanoic Acid, Formic Acid Salt] | 7.00 to 8.00 | – |
| Cc1ccc(C(c2ccc3c(nnn3C)c2C)C(C)(C)C(=O)O)cc1Cn1ccnc1CN1CCO[C@H](C)C1 (stereo partly drawn) [Example 144, 3-(1,4-Dimethyl-1H-benzo[d][1,2,3]triazol-5-yl)-2,2-dlmethyl-3-(4-methyl-3-((2-(((R)-2-methylmorpholino)methyl)-1H-imidazol-1-yl)methyl)phenyl) propanoic acid, trifluoroacetic acid salt] | 6.00 to 7.00 | – |
| Cc1ccc2c(c1)OC(C)(C)CN(Cc1cc([C@@H](CC(=O)O)c3ccc4c(nnn4C)c3C)ccc1C)C2 [Example 179, (R)-3-(1,4-Dimethyl-1H-benzo[d][1,2,3]triazol-5-yl)-3-(4-methyl-3-((2,2,8-trimethyl-2,3-dihydrobenzo[f][1,4]oxazepin-4(5H)-yl)methyl)phenyl) propanoic acid] | 7.00 to 8.00 | – |
| CC[C@@H]1CN(Cc2cc([C@@H](CC(=O)O)c3ccc4c(nnn4C)c3C)ccc2C)Cc2ccccc2O1 [Example 51, (R)-3-(1,4-Dimethyl-1H-benzo[d][1,2,3]triazol-5-yl)-3-(3-(((R)-2-ethyl-2,3-dihdyrobenzo[f][1,4]oxazepin-4(5H)-yl)methyl)-4-methylphenyl)propanoic acid, formic acid salt] | 6.00 to 7.00 | – |
| CC[C@@H]1CN(Cc2cc([C@H](CC(=O)O)c3ccc4c(nnn4C)c3C)ccc2Cl)Cc2ncccc2O1 [Example 263, (S)-3-(4-chloro-3-(((R)-2-ethyl-2,3-dihydropyrido[2,3-f][1,4]oxazepin-4(5H)-yl)methyl)phenyl)-3-(1,4-dimethyl-1H-benzo[d][1,2,3]triazol-5-yl)propanoic acid] | 7.00 to 8.00 | – |
| CC[C@@H]1CN(Cc2cc([C@@H](c3ccc4c(nnn4C)c3C)C(C)(C)C(=O)NS(C)(=O)=O)ccc2C)Cc2cnccc2O1 [Example 205, (S)-3-(1,4-Dimethyl-1H-benzo[d][1,2,3]triazol-5-yl)-3-(3-(((R)-2-ethyl-2,3-dihydropyrido[3,4-f][1,4]oxazepin-4(5H)-yl)methyl)-4-methylphenyl)-2,2-dimethyl-N-(methylsulfonyl)propanamide, Trifluoroacetic Acid Salt] | 6.00 to 7.00 | – |
| CCCC1CN(Cc2cc(C(CC(=O)O)c3ccc4c(nnn4C)c3C)ccc2C)Cc2ccccc2O1 (stereo not shown) [Example 71, 3-(1,4-dimethyl-1H-benzo[d][1,2,3]triazol-5-yl)-3-(4-methyl-3-((2-propyl-2,3-dihydrobenzo[f][1,4]oxazepin-4(5H)-yl)methyl)phenyl)propanoic Acid, Formic Acid Salt] | 6.00 to 7.00 | – |
| Cc1ccc([C@@H](CC(=O)O)c2ccc3c(nnn3C)c2C)cc1CN1Cc2cccc(F)c2OC(C)(C)C1 [Example 177, (R)-3-(1,4-Dimethyl-1H-benzo[d][1,2,3]triazol-5-yl)-3-(3-((9-fluoro-2,2-dimethyl-2,3-dihydrobenzo[f][1,4]oxazepin-4(5H)-yl)methyl)-4-methylphenyl)propanoic acid] | 7.00 to 8.00 | – |
| Cc1ccc(C(CC(=O)O)c2ccc3c(nnn3C)c2C)cc1CN1Cc2ncccc2OC(C)(C)C1 (stereo in doubt) [Example 170, (S)-3-(1,4-Dimethyl-1H-benzo[d][1,2,3]triazol-5-yl)-3-(3-((2,2-dimethyl-2,3-dihydropyrido[2,3-f][1,4]oxazepin-4(5H)-yl)methyl)-4-methylphenyl)propanoic acid, 0.5 Formlc acid salt] | – | 7.00 to 8.00 |

Reference: US10604509B2, “Nrf2 regulators” (GlaxoSmithKline Intellectual Property Development Limited, priority 2015, dated 2020)
